Test results from patent publication US20230390406A1, “Star Polymer Drug Conjugates” (Vaccitech North America, Inc., priority 2020, published 2023).
Where a SMILES comes first, the peptide text is derived from it.

How the values were obtained:
human cathepsin B = target: T1, human cathepsin B (Homo sapiens, UniProt P07858); assay: Cleavage of AMC-peptides by cathepsin B (HPLC, 350 nm); format: biochemical; conditions: pH 5, 37° C., up to 6 hrs
T1 construct: purchased Sino Biological
Procedure: (§1) A series of peptide-based small molecules were screened in vitro to characterize their lability in human cathepsin B and mouse plasma enzymes. The screening protocol was adapted from literatures^1,2 and is shown below in FIGS. 31 and 32. In short, a small library of peptides conjugated to 7-amino-4-methylcoumarin (AMC-peptides) were synthesized by standard solid-phase peptide synthesis (SPPS) by Genscript (Piscataway, NJ), as summarized in the Table 18. They were first dissolved in DMSO as 10 mM stock solution and then incubated in the presence of PBS buffer (Gibco, 10010-031), cathepsin B (Sino Biological, protein human recombinant), and mouse plasma (BioIVT, C57BL/6 li-hep pooled, female). Substrates of either cathepsin B or plasma enzymes (and not PBS) afforded cleavage of the peptide-AMC bond. The resultant free AMC elutes at a different time from the parent AMC-conjugated peptides on the HPLC, thereby the linker degradation was monitored and quantified over time (i.e., 5 min, 1 hr and 6 hrs). PBS buffer solution was used as the matrix for the negative control. Cleavage of cathepsin B substrate Ill (Millipore Sigma, 219392) served as the positive control.
(§2) The stability of the analyte peptide was determined by the comparing the area-under-curve (AUC) of analyte peaks at 350 nm following formula: […]

mouse plasma enzymes = assay: Stability of AMC-peptides in mouse plasma (HPLC, 350 nm); format: in vitro ADME; conditions: up to 6 hrs
Procedure: Peptide linker stock solutions (10 mM in DMSO) are diluted to 1 mM and then incubated with mouse plasma; aliquots are removed, blood proteins are precipitated with cold acetonitrile, pelleted with centrifugation, and the supernatant analyzed by HPLC.
as §1, §2

[1] = Turbidity (OD 490 nm) / solubility in PBS buffer at different pH; format: physicochemical
[2] = Particle / hydrodynamic size (Rh, Dh) by dynamic light scattering; format: physicochemical
Procedure: Samples were suspended at 0.5 mg/mL in PBS pH 7.4 and particle size was determined using dynamic light scattering (Malvern ZetaSizer Ultra).

MC38 tumors = assay: MC38 tumor model, single intratumoral injection of 7 nmol STINGa (diABZI); format: in vivo, C57BL/6 mice; conditions: 7 nmol STINGa IT day 11, versus vehicle / untreated
Procedure: (§3) Tumor size was measured by digital calipers for up to 30 days after tumor implantation (FIG. 12 B & C). To assess acute toxicity, mice were bled 4 hours after treatment, and blood IP-10 concentration was assessed by ELISA (FIG. 12D).
(§4) To further assess the impact of linkage on efficacy and tolerability in vivo, select compositions of the Compound listed in Table 9 were evaluated in tumor-bearing mice (FIG. 12). The study design is shown in (FIG. 12A). […] Tumors were allowed to grow until all mice in the study had palpable tumors. On day 11, mice were treated with a single intratumoral (IT) injection of 7 nmol of STINGa (diABZI) as either Compound 56, Compound 94, Compound 95, Compound 96 or Compound 97 in PBS. As a control, a group of mice was treated with the formulation vehicle (7% DMSO in PBS). Tumors were measured biweekly to track tumor growth after treatment. Tolerability was assessed by measuring the amount of Interferon-gamma-induced protein 10 (IP-10) in the serum of animals 4 hours after intratumoral injection.

[3] = test system: Interferon-gamma-induced protein 10 (IP-10); assay: Serum IP-10 (ELISA) 4 hours after intratumoral injection (tolerability); format: in vivo, C57BL/6 mice; conditions: 4 hours after 7 nmol IT
Procedure: as §3, §4

CT26 tumors = assay: CT26 tumor model, single intratumoral injection of 35 nmol STINGa; format: in vivo, BALB/c mice; conditions: 35 nmol STINGa IT, versus vehicle or free STINGa
Procedure: Tumor size was measured by digital calipers (FIG. 11B) and survival (FIG. 11C) were assessed up to 80 days after tumor implantation.
To assess the impact of linkage on efficacy in vivo, select compositions were tested in tumor-bearing mice (FIG. 11). The study design is shown in (FIG. 11A). BALB/c mice were implanted subcutaneously with 10^5 cells of the syngeneic tumor line CT26 on day 0. Tumors were allowed to grow until all mice in the study had palpable tumors. On day 12, mice were treated with a single intratumoral (IT) injection of 35 nmol of the STINGa as either (i) Compound 56 (amide linkage); (ii) Compound 94 hydrazone (Hz) linkage; or (iii) the free STINGa. An additional group of mice was treated with the formulation vehicle (7% DMSO in PBS) as a negative control. Tumors were measured biweekly to track tumor growth after treatment.

## CCC(NC(=O)[C@@H](NC(=O)[C@H](CCCCNC(C)=O)NC(=O)[C@H](CO)NC(=O)CCNC(C)=O)C(C)C)C(=O)Nc1ccc2c(C)cc(=O)oc2c1 (some centres unmarked) [Compound AJ, Ac-A′SK(Ac) VB-AMC] (HELM PEPTIDE1{[ac].[bAla].S.K.V.[CCC(N[*:1])C(=O)[*:2]].[Cc1cc(=O)oc2cc(N[*:1])ccc12]}|PEPTIDE2{[ac]}$PEPTIDE1,PEPTIDE2,4:R3-1:R2$$$V2.0)
Human cathepsin B
  stability / cleavage in the presence of cathepsin B: relatively stable
Mouse plasma enzymes
  stability in mouse plasma: relatively stable

## N3-poly(HPMA-co-Ma-b-Ala-2BXy-co-Ma-b-Ala-COOH)-Pg [Compound 48]
[1]
  Turbidity at pH 6.5: Aggregate
  Turbidity at pH 7.4: 0.043
[2]
  Rh (nm) at pH 6.5: 48.0 nm

## N3-p[(HPMA)-co-(MA-b-Ala-cHz-HA-diABZI)]-Pg [Compound 95]
MC38 tumors
  tumor control: improved tumor control
[3]
  serum IP-10 level compared to free STINGa: lower
[2]
  Rh (nm) at pH 7.4: 7.3 nm

## N3-poly(HPMA-co-Ma-b-Ala-2BXy-co-Ma-b-Ala-dimethylethylenediamine)-Pg [Compound 52]
[2]
  Rh (nm) at pH 6.5: 4.1 nm

## N3-poly(HPMA-co-Ma-b-Ala-diABZI)-Pg [Compound 56]
MC38 tumors
  tumor control: not
CT26 tumors
  survival: comparable to the mice that received the vehicle
  tumor control / tumor growth: comparable to the mice that received the vehicle
[2]
  Rh (nm) at pH 7.4: (aggregate)

## CCC(NC(=O)[C@@H](NC(=O)[C@@H]1CCCN1C(=O)[C@H](CO)NC(=O)CCNC(C)=O)C(C)C)C(=O)Nc1ccc2c(C)cc(=O)oc2c1 (some centres unmarked) [AI, Ac-A′SPVB-AMC] (HELM PEPTIDE1{[ac].[bAla].S.P.V.[CCC(N[*:1])C(=O)[*:2]].[Cc1cc(=O)oc2cc(N[*:1])ccc12]}$$$$V2.0)
Human cathepsin B
  stability / cleavage in the presence of cathepsin B: metabolized quickly
Mouse plasma enzymes
  stability in mouse plasma: metabolized quickly

## N3-poly[(HPMA-co-Ma-b-Ala-2BXy)-b-HPMA]-Pg [Compound 62]
[1]
  Turbidity at pH 6.5: 0.039
  Turbidity at pH 7.4: 0.039
[2]
  Rh (nm) at pH 6.5: 6.9 nm
  Rh (nm) at pH 7.4: 6.6 nm

## CCCC[C@H](NC(=O)[C@H](CO)NC(=O)[C@H](CCCCNC(C)=O)NC(=O)[C@H](CO)NC(=O)CCNC(C)=O)C(=O)Nc1ccc2c(C)cc(=O)oc2c1 [AO, Ac-A′SK(Ac) SnL-AMC] (HELM PEPTIDE1{[ac].[bAla].S.K.S.[Nle].[Cc1cc(=O)oc2cc(N[*:1])ccc12]}|PEPTIDE2{[ac]}$PEPTIDE1,PEPTIDE2,4:R3-1:R2$$$V2.0)
Human cathepsin B
  stability / cleavage in the presence of cathepsin B: readily cleaved
Mouse plasma enzymes
  stability in mouse plasma: significant stability

## PAMAM-g-poly[(HPMA-co-Ma-b-Ala-2BXy)-b-HPMA]-Pg [Compound 78]
[1]
  Turbidity at pH 7.4: 0.041
[2]
  Rh (nm) at pH 7.4: 12.9 nm

## N3-poly[(HPMA-co-Ma-b-Ala-2BXy)-b-(HPMA-co-Ma-propyl-NH2)]-Pg [Compound 68]
[2]
  Rh (nm) at pH 6.5: 5.6 nm
  Rh (nm) at pH 7.4: 6.5 nm

## CCCCC(NC(=O)[C@H](CO)NC(=O)[C@H](CCCCN)NC(=O)[C@H](CO)NC(=O)CCNC(C)=O)C(=O)Nc1ccc2c(C)cc(=O)oc2c1 (some centres unmarked) [AP, Ac-A′SKSnL-AMC] (HELM PEPTIDE1{[ac].[bAla].S.K.S.[CCCCC(N[*:1])C(=O)[*:2]].[Cc1cc(=O)oc2cc(N[*:1])ccc12]}$$$$V2.0)
Human cathepsin B
  stability / cleavage in the presence of cathepsin B: readily cleaved
Mouse plasma enzymes
  stability in mouse plasma: significant stability

## CCC(NC(=O)[C@H](CO)NC(=O)[C@H](CCCCNC(C)=O)NC(=O)[C@H](CO)NC(=O)CCNC(C)=O)C(=O)Nc1ccc2c(C)cc(=O)oc2c1 (some centres unmarked) [Compound AK, Ac-A′SK(Ac) SB-AMC] (HELM PEPTIDE1{[ac].[bAla].S.K.S.[CCC(N[*:1])C(=O)[*:2]].[Cc1cc(=O)oc2cc(N[*:1])ccc12]}|PEPTIDE2{[ac]}$PEPTIDE1,PEPTIDE2,4:R3-1:R2$$$V2.0)
Human cathepsin B
  stability / cleavage in the presence of cathepsin B: readily cleaved
Mouse plasma enzymes
  stability in mouse plasma: significant stability

## N3-p[(HPMA)-co-(MA-b-Ala-Hz-HA-diABZI)]-Pg [Compound 94]
MC38 tumors
  tumor control: improved tumor control
CT26 tumors
  survival: improved
  tumor control / tumor growth: improved tumor control
[3]
  serum IP-10 level compared to free STINGa: similar
[2]
  Rh (nm) at pH 7.4: 10.0 nm

## PAMAM-g-poly[(HPMA-co-Ma-b-Ala-2BXy)-b-(HPMA-co-Ma-propyl-NH2]-Pg [Compound 80]
[1]
  Turbidity at pH 7.4: 0.043
[2]
  Rh (nm) at pH 7.4: 12.4 nm

## CCC(NC(=O)[C@H](CO)NC(=O)[C@H](CCCCN)NC(=O)[C@H](CO)NC(=O)CCNC(C)=O)C(=O)Nc1ccc2c(C)cc(=O)oc2c1 (some centres unmarked) [AL, Ac-A′SKSB-AMC] (HELM PEPTIDE1{[ac].[bAla].S.K.S.[CCC(N[*:1])C(=O)[*:2]].[Cc1cc(=O)oc2cc(N[*:1])ccc12]}$$$$V2.0)
Human cathepsin B
  stability / cleavage in the presence of cathepsin B: readily cleaved
Mouse plasma enzymes
  stability in mouse plasma: significant stability

## CCCCC(NC(=O)[C@@H](NC(=O)CCNC(C)=O)C(C)C)C(=O)Nc1ccc2c(C)cc(=O)oc2c1 (some centres unmarked) [AM, Ac-A′VnL-AMC] (HELM PEPTIDE1{[ac].[bAla].V.[CCCCC(N[*:1])C(=O)[*:2]].[Cc1cc(=O)oc2cc(N[*:1])ccc12]}$$$$V2.0)
Human cathepsin B
  stability / cleavage in the presence of cathepsin B: metabolized quickly
Mouse plasma enzymes
  stability in mouse plasma: metabolized quickly

## CCCC[C@H](NC(=O)[C@@H](NC(=O)[C@@H]1CCCN1C(=O)[C@H](CO)NC(=O)CCNC(C)=O)C(C)C)C(=O)Nc1ccc2c(C)cc(=O)oc2c1 [AN, Ac-A′SPVnL-AMC] (HELM PEPTIDE1{[ac].[bAla].S.P.V.[Nle].[Cc1cc(=O)oc2cc(N[*:1])ccc12]}$$$$V2.0)
Human cathepsin B
  stability / cleavage in the presence of cathepsin B: metabolized quickly
Mouse plasma enzymes
  stability in mouse plasma: metabolized quickly

## N3-p[(HPMA)-co-(MA-b-Ala-VZ-PAB-diABZI)]-Pg [Compound 96]
MC38 tumors
  tumor control: improved tumor control
[3]
  serum IP-10 level compared to free STINGa: lower
[2]
  Rh (nm) at pH 7.4: 26.9 nm

## CC[C@H](NC(=O)[C@@H](NC(=O)CCNC(C)=O)C(C)C)C(=O)Nc1ccc2c(C)cc(=O)oc2c1 [Compound AH, Ac-A′VB-AMC] (HELM PEPTIDE1{[ac].[bAla].V.[Abu].[Cc1cc(=O)oc2cc(N[*:1])ccc12]}$$$$V2.0)
Human cathepsin B
  stability / cleavage in the presence of cathepsin B: metabolized quickly
Mouse plasma enzymes
  stability in mouse plasma: metabolized quickly

## N3-p[(HPMA)-co-(MA-b-Ala-PEG4-VZ-PAB-diABZI)]-Pg [Compound 97]
MC38 tumors
  tumor control: improved tumor control
[3]
  serum IP-10 level compared to free STINGa: lower
[2]
  Rh (nm) at pH 7.4: 7.6 nm
